Source: patent publication US20250074891A1 (Anaxis Pharma Pty Ltd., priority 2021, published 2025)

Columns and labels:
Details in all cases: Table 35
[1] = target: MLKL (full length) (Homo sapiens (Human), UniProt Q8NB16); assay: KINOMEscan binding assay, MLKL (full length)
Method: (§1) Kinase assays. For most assays, kinase-tagged T7 phage strains were grown in parallel in 24-well blocks in an E. coli host derived from the BL21 strain. E. coli were grown to log-phase and infected with T7 phage from a frozen stock (multiplicity of infection=0.4) and incubated with shaking at 32° C. until lysis (90-150 minutes).
(§2) The Hill Slope was set to −1.

[2] = target: RIP3 (Homo sapiens (Human), UniProt Q9Y572); assay: KINOMEscan binding assay, RIP3
Method: as §1, §2

[3] = target: RIP1 (Homo sapiens (Human), UniProt Q13546); assay: KINOMEscan binding assay, RIP1
Sequence of RIP1 (Q13546 whole entry): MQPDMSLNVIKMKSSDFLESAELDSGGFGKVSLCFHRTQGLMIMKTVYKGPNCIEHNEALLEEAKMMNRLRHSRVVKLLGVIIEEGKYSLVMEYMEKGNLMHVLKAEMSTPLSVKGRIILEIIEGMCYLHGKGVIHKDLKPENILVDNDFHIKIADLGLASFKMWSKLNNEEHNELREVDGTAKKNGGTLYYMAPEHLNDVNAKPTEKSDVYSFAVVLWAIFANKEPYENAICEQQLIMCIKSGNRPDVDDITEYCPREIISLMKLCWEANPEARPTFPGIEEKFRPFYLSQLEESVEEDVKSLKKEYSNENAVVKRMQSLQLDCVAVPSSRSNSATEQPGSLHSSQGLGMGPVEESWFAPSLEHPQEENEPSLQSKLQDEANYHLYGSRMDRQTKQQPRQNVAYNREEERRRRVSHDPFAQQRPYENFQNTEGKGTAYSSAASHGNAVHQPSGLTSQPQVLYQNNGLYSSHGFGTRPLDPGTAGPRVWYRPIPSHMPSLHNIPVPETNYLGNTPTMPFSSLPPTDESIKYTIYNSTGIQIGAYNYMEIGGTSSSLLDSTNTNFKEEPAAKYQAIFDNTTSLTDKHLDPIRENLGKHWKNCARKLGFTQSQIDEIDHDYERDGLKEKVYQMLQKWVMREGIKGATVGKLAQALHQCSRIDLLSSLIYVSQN

Sequence of RIP3 (Q9Y572 whole entry): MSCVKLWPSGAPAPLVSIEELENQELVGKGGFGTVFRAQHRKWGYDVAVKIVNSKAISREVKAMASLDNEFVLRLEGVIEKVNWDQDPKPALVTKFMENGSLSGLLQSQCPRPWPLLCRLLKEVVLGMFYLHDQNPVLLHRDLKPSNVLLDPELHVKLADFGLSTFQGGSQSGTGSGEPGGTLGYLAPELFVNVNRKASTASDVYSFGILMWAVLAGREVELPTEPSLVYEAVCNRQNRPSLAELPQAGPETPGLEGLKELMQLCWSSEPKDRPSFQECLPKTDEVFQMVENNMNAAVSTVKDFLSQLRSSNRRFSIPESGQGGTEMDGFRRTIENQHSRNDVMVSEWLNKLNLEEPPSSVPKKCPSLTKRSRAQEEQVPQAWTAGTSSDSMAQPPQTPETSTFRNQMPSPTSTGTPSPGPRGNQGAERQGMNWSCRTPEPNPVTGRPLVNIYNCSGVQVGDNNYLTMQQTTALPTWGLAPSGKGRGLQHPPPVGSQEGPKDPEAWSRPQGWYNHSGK
Sequence of MLKL (full length) (Q8NB16 whole entry): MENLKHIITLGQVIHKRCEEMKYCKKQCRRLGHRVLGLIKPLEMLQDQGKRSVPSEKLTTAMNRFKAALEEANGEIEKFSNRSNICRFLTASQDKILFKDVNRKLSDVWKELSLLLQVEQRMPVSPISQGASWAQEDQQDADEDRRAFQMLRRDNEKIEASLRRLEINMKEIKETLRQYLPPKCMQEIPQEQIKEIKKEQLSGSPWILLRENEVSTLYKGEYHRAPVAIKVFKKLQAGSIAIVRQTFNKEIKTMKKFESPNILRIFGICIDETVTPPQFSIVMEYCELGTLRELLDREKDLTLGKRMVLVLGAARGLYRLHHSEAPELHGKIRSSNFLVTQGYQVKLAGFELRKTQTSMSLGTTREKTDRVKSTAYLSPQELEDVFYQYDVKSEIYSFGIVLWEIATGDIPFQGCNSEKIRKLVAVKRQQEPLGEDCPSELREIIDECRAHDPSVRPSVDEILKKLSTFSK

Structure (SMILES) | Kd [1] [µM] | Kd [2] [µM] | Kd [3] [µM]
NC(=O)c1c(-c2ccc(NS(=O)(=O)CC(F)(F)F)cc2)n[nH]c1Nc1cnccn1 [Compound 137, 5-(pyrazin-2-ylamino)-3-(4-((2,2,2-trifluoroethyl)sulfonamido)phenyl)-1H-pyrazole-4-carboxamide] | < 0.01 | > 30 | > 30
NC(=O)c1c(-c2ccc(NS(=O)(=O)CC(F)(F)F)cc2OCc2ccc(F)cc2)n[nH]c1Nc1cnccn1 [Compound 139, 3-(2-((4-fluorobenzyl)oxy)-4-((2,2,2-trifluoroethyl)sulfonamido)phenyl)-5-(pyrazin-2-ylamino)-1H-pyrazole-4-carboxamide] | < 0.01 | > 30 | > 30
NC(=O)c1c(-c2ccc(NS(=O)(=O)CC(F)(F)F)cc2OCc2ccc(F)cc2)n[nH]c1Nc1cccc(C(F)(F)F)n1 [Compound 140, 3-(2-((4-fluorobenzyl)oxy)-4-((2,2,2-trifluoroethyl)sulfonamido)phenyl)-5-((6-(trifluoromethyl)pyridine-2-yl)amino)-1H-pyrazole-4-carboxamide] | < 0.01 | > 30 | > 30
COc1cnc(Nc2[nH]nc(-c3ccc(NS(=O)(=O)CC(F)(F)F)c(OCc4ccc(F)cc4)c3)c2C(N)=O)cn1 [Compound 143, 3-(3-((4-fluorobenzyl)oxy)-4-((2,2,2-trifluoroethyl)sulfonamido)phenyl)-5-((5-methoxypyrazin-2-yl)amino)-1H-pyrazole-4-carboxamide] | < 0.01 | > 30 | > 30
NC(=O)c1c(-c2ccc(NS(=O)(=O)CC(F)(F)F)c(OC3(c4ccc(F)cc4)CC3)c2)n[nH]c1Nc1cnccn1 [Compound 144, 3-(3-(1-(4-fluorophenyl)cyclopropoxy)-4-((2,2,2-trifluoroethyl)sulfonamido)phenyl)-5-(pyrazin-2-ylamino)-1H-pyrazole-4-carboxamide] | < 0.01 | > 30 | > 30
NC(=O)c1c(-c2ccc(NS(=O)(=O)C(F)F)cc2)n[nH]c1Nc1ccc(C(F)(F)F)cn1 [Compound 145, 3-(4-((difluoromethyl)sulfonamido)phenyl)-5-((5-(trifluoromethyl)pyridine-2-yl)amino)-1H-pyrazole-4-carboxamide] | < 0.01 | > 30 | > 30
Cc1cnc(Nc2[nH]nc(-c3ccc(NS(=O)(=O)CC(F)(F)F)c(OCc4ccc(Cl)c(F)c4)c3)c2C(N)=O)cn1 [Compound 146, 3-(3-((4-chloro-3-fluorobenzyl)oxy)-4-((2,2,2-trifluoroethyl)sulfonamido)phenyl)-5-((5-methylpyrazin-2-yl)amino)-1H-pyrazole-4-carboxamide] | < 0.01 | > 30 | > 30
NC(=O)c1c(-c2ccc(NS(=O)(=O)C(F)F)c(Oc3ccc(F)cc3)c2)n[nH]c1Nc1cccc(C(F)(F)F)n1 [Compound 147, 3-(4-((difluoromethyl)sulfonamido)-3-(4-fluorophenoxy)phenyl)-5-((6-(trifluoromethyl)pyridine-2-yl)amino)-1H-pyrazole-4-carboxamide] | < 0.01 | > 30 | > 30
NC(=O)c1c(-c2ccc(NS(=O)(=O)CC(F)(F)F)c(Oc3ccc(F)cc3)c2)n[nH]c1Nc1cccc(C(F)(F)F)n1 [Compound 148, 3-(3-(4-fluorophenoxy)-4-((2,2,2-trifluoroethyl)sulfonamido)phenyl)-5-((6-(trifluoromethyl)pyridine-2-yl)amino)-1H-pyrazole-4-carboxamide] | < 0.01 | > 30 | > 30
CCS(=O)(=O)Nc1ccc(-c2n[nH]c(Nc3cccc(C(F)(F)F)n3)c2C(N)=O)cc1Oc1ccc(F)cc1 [Compound 149, 3-(4-(ethylsulfonamido)-3-(4-fluorophenoxy)phenyl)-5-((6-(trifluoromethyl)pyridine-2-yl)amino)-1H-pyrazole-4-carboxamide] | < 0.01 | > 30 | > 30
NC(=O)c1c(-c2ccc(NS(=O)(=O)C(F)F)c(OCc3ccc(F)c(F)c3)c2)n[nH]c1Nc1cccc(C(F)(F)F)n1 [Compound 151, 3-(3-((3,4-difluorobenzyl)oxy)-4-((difluoromethyl)sulfonamido)phenyl)-5-((6-(trifluoromethyl)pyridine-2-yl)amino)-1H-pyrazole-4-carboxamide] | < 0.01 | > 30 | > 30
CCS(=O)(=O)Nc1ccc(-c2n[nH]c(Nc3cnccn3)c2C(N)=O)cc1OC1(c2ccccc2)CC1 [Compound 152, 3-(4-(ethylsulfonamido)-3-(1-phenylcyclopropoxy)phenyl)-5-(pyrazin-2-ylamino)-1H-pyrazole-4-carboxamide] | < 0.01 | > 30 | > 30
NC(=O)c1c(-c2ccc(NS(=O)(=O)CC(F)(F)F)cc2)n[nH]c1Nc1ccc(C(F)(F)F)cn1 [Compound 153, 3-(4-((2,2,2-trifluoroethyl)sulfonamido)phenyl)-5-((5-(trifluoromethyl)pyridine-2-yl)amino)-1H-pyrazole-4-carboxamide] | < 0.01 | > 30 | > 30
C[C@H](Oc1cc(-c2n[nH]c(Nc3ccccn3)c2C(N)=O)ccc1NS(=O)(=O)CC(F)(F)F)c1ccc(F)cc1 [Compound 154, (S)-3-(3-(1-(4-fluorophenyl)ethoxy)-4-((2,2,2-trifluoroethyl)sulfonamido)phenyl)-5-(pyridine-2-ylamino)-1H-pyrazole-4-carboxamide] | < 0.01 | > 30 | > 30
Cc1cnc(Nc2[nH]nc(-c3ccc(NS(=O)(=O)CC(F)(F)F)c(OCc4ccc(F)c(Cl)c4)c3)c2C(N)=O)cn1 [Compound 155, 3-(3-((3-chloro-4-fluorobenzyl)oxy)-4-((2,2,2-trifluoroethyl)sulfonamido)phenyl)-5-((5-methylpyrazin-2-yl)amino)-1H-pyrazole-4-carboxamide] | < 0.01 | > 30 | > 30
CCS(=O)(=O)Nc1ccc(-c2n[nH]c(Nc3cnccn3)c2C(N)=O)cc1OCc1ccc(F)cn1 [Compound 156, 3-(4-(ethylsulfonamido)-3-((5-fluoropyridin-2-yl)methoxy)phenyl)-5-(pyrazin-2-ylamino)-1H-pyrazole-4-carboxamide] | < 0.01 | > 30 | > 30
COc1cnc(Nc2[nH]nc(-c3ccc(NS(=O)(=O)CC(F)(F)F)c(OCc4ccc(Cl)cc4)c3)c2C(N)=O)cn1 [Compound 157, 3-(3-((4-chlorobenzyl)oxy)-4-((2,2,2-trifluoroethyl)sulfonamido)phenyl)-5-((5-methoxypyrazin-2-yl)amino)-1H-pyrazole-4-carboxamide] | < 0.01 | > 30 | > 30
CCS(=O)(=O)Nc1ccc(-c2n[nH]c(Nc3cnc(C4CC4)cn3)c2C(N)=O)cc1 [Compound 158, 5-((5-cyclopropylpyrazin-2-yl)amino)-3-(4-(ethylsulfonamido)phenyl)-1H-pyrazole-4-carboxamide] | < 0.01 | > 30 | > 30
COc1ccc(Nc2[nH]nc(-c3ccc(NS(=O)(=O)CC(F)(F)F)c(OCc4ccc(F)cc4)c3)c2C(N)=O)cn1 [Compound 159, 3-(3-((4-fluorobenzyl)oxy)-4-((2,2,2-trifluoroethyl)sulfonamido)phenyl)-5-((6-methoxypyridin-3-yl)amino)-1H-pyrazole-4-carboxamide] | < 0.01 | > 30 | > 30
NC(=O)c1c(-c2ccc(NS(=O)(=O)CC(F)(F)F)c(OCc3ccc(F)c(F)c3)c2)n[nH]c1Nc1ccccn1 [Compound 160, 3-(3-((3,4-difluorobenzyl)oxy)-4-((2,2,2-trifluoroethyl)sulfonamido)phenyl)-5-(pyridine-2-ylamino)-1H-pyrazole-4-carboxamide] | < 0.01 | > 30 | > 30
NC(=O)c1c(-c2ccc(NS(=O)(=O)CC(F)(F)F)c(OC3(c4ccccc4)CC3)c2)n[nH]c1Nc1cnccn1 [Compound 161, 3-(3-(1-phenylcyclopropoxy)-4-((2,2,2-trifluoroethyl)sulfonamido)phenyl)-5-(pyrazin-2-ylamino)-1H-pyrazole-4-carboxamide] | < 0.01 | > 30 | > 30
Cc1cnc(Nc2[nH]nc(-c3ccc(NS(=O)(=O)CC(F)(F)F)c(OCc4ccc(Cl)cc4)c3)c2C(N)=O)cn1 [Compound 162, 3-(3-((4-chlorobenzyl)oxy)-4-((2,2,2-trifluoroethyl)sulfonamido)phenyl)-5-((5-methylpyrazin-2-yl)amino)-1H-pyrazole-4-carboxamide] | < 0.01 | > 30 | > 30
Cc1cnc(Nc2[nH]nc(-c3ccc(NS(=O)(=O)CC(F)(F)F)c(OCc4ccc(F)cc4)c3)c2C(N)=O)cn1 [Compound 163, 3-(3-((4-fluorobenzyl)oxy)-4-((2,2,2-trifluoroethyl)sulfonamido)phenyl)-5-((5-methylpyrazin-2-yl)amino)-1H-pyrazole-4-carboxamide] | < 0.01 | > 30 | > 30
C[C@H](Oc1cc(-c2n[nH]c(Nc3cnccn3)c2C(N)=O)ccc1NS(=O)(=O)CC(F)(F)F)c1ccc(F)cc1 [Compound 164, (S)-3-(3-(1-(4-fluorophenyl)ethoxy)-4-((2,2,2-trifluoroethyl)sulfonamido)phenyl)-5-(pyrazin-2-ylamino)-1H-pyrazole-4-carboxamide] | < 0.01 | > 30 | > 30
NC(=O)c1c(-c2ccc(NS(=O)(=O)CC(F)(F)F)c(OCc3ccc(Cl)c(F)c3)c2)n[nH]c1Nc1cnccn1 [Compound 165, 3-(3-((4-chloro-3-fluorobenzyl)oxy)-4-((2,2,2-trifluoroethyl)sulfonamido)phenyl)-5-(pyrazin-2-ylamino)-1H-pyrazole-4-carboxamide] | < 0.01 | > 30 | > 30
